In article PMC4111400 (Journal of Medicinal Chemistry, 2014):
Like-named read-outs stand apart in the source and are kept apart here.

Legend:
[1] = system: Na+ channels in CAD cells; conditions: cited from earlier work
[2] = system: subcutaneous Metrazol (scMet) seizure; conditions: 10−13; cited from earlier work
[3] = system: Na+ channels in CAD cells; conditions: 100 μM; cited from earlier work
[4] = system: hippocampal kindled seizure; conditions: ip; cited from earlier work
[5] = system: Na+ channels in CAD cells; test: frequency; type: cell-based, mouse; conditions: 500 μM (Figure 9 legend: concentrations greater than 500 μM)

SMILES: COC[C@@H](NC(C)=O)C(=O)NCc1ccccc1 [(R)-1, (R)-N-Benzyl 2-acetamido-3-methoxypropionamide]
- effect on Na+ channel fast inactivation [1]: did not affect Na^+ channel fast inactivation
- activity in the scMet model [2]: no activity
- frequency (use) inhibition of Na+ currents [3]: not observed notable frequency (use) inhibition of Na^+ currents
- ED50, rat hippocampal seizure model [4]: 14 mg/kg
- frequency (use) inhibition of Na+ currents [5]: significant inhibition of use-dependence
